Assay results reported in US20160122320A1, “USEFUL COMBINATIONS OF MONOBACTAM ANTIBIOTICS WITH BETA-LACTAMASE INHIBITORS” (Basilea Pharmaceutica AG, priority 2005, published 2016).

What was measured:
Test in all cases: MIC, NCCLS broth microdilution
Type in all cases: cell-based
[1] = test system: Stenotrophomonas malthophilia 1AC736; conditions: Stenotrophomonas maltophilia 1AC736
[2] = test system: Enterobacter cloacae B1102
Protocol: (§1) Antimicrobial activity of the compounds and of their combinations was determined against a selection of organisms according to the standard procedures described by the National Committee for Clinical Laboratory Standards (National Committee for Clinical Laboratory. Standards (2000). Methods for Dilution Antimicrobial Susceptibility Tests for Bacteria That Grow Aerobically-Fifth Edition: Approved Standard M7-A5. NCCLS, Wayne, Pa., USA).
(§2) In all cases the final concentration of DMSO incubated with the bacteria is less than or equal to 1%. […] Plates were incubated overnight at an appropriate temperature (30° C. or 37° C.) and optical densities assessed by eye. The MIC value is defined as the lowest compound concentration completely inhibiting visible growth of the test organism. When combinations between compounds of formula I with compounds of formula II and are evaluated the compounds of formula I are tested in dilution series as described above while the compounds of formula II and III-XIII were present in all wells at a constant concentration of 4 μg/mL each.

[3] = test system: Pseudomonas aeruginosa MK1184
[4] = test system: Enterobacter cloacae M4018
Protocol: as §2

[5] = test system: Pseudomonas aeruginosa 1973E
Method in brief: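 MIC read by eye as the lowest concentration giving no visible growth after overnight incubation (30° C. or 37° C.), following NCCLS M7-A5 microdilution with ≤1% final DMSO. For combinations, partner compounds (formula II, III-XIII) were fixed at 4 μg/mL each while formula I compounds were titrated.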

[6] = test system: Enterobacter aerogenes Zayakosky; conditions: Enterobacter aerogenes Zayakosky
Protocol: as §1, §2

Acinetobacter sp. J2 = conditions: for MIC of antibiotic: antibiotic alone, no inhibitor
[7] = with clavulanate (clavulanic acid)
[8] = + compound 323 and clavulanate, 4 mg/L each

Q: What does the source list for CC1C(NC(=O)C(=NOCc2cc(=O)c(O)cn2O)c2csc(N)n2)C(=O)N1S(=O)(=O)O (centres unmarked) [Compound 1]?
A: MIC of antibiotic at fixed inhibitor concentration of 4 mg/L ([1]; with 323 and clavulanate): 0.125 mg/L; MIC of antibiotic at fixed inhibitor concentration of 4 mg/L ([1]; with 323 and sulbactam): 0.125 mg/L; MIC of antibiotic at fixed inhibitor concentration of 4 mg/L ([1]; with 324 and clavulanate): 0.125 mg/L; MIC of antibiotic at fixed inhibitor concentration of 4 mg/L ([1]; with 501): 0.25 mg/L; MIC of antibiotic at fixed inhibitor concentration of 4 mg/L [1, 7]: 0.5 mg/L; Minimal Inhibitory Concentration of antibiotic at fixed inhibitor concentration of 4 mg/L ([2]; + clavulanate 4 mg/L): 32 mg/L; Minimal Inhibitory Concentration of antibiotic at fixed inhibitor concentration of 4 mg/L ([2]; + compound 206 4 mg/L): 16 mg/L; Minimal Inhibitory Concentration of antibiotic at fixed inhibitor concentration of 4 mg/L [2, 8]: 8 mg/L; Minimal Inhibitory Concentration of antibiotic at fixed inhibitor concentration of 4 mg/L ([2]; + compound 501 4 mg/L): 16 mg/L; Minimal Inhibitory Concentration of antibiotic ([2]; antibiotic alone): >32 mg/L; MIC of antibiotic ([3]; antibiotic alone, no inhibitor): >32 mg/L; MIC of antibiotic at fixed inhibitor concentration of 4 mg/L ([3]; with 102 and clavulanate): 4 mg/L; MIC of antibiotic at fixed inhibitor concentration of 4 mg/L ([3]; with 103 and clavulanate): 8 mg/L; MIC of antibiotic at fixed inhibitor concentration of 4 mg/L ([3]; with 111 and clavulanate): 8 mg/L; MIC of antibiotic at fixed inhibitor concentration of 4 mg/L ([3]; with 202 and clavulanate): 8 mg/L; MIC of antibiotic at fixed inhibitor concentration of 4 mg/L ([3]; with 206 and clavulanate): >32 mg/L; MIC of antibiotic at fixed inhibitor concentration of 4 mg/L ([3]; with 323 and clavulanate): 16 mg/L; MIC of antibiotic at fixed inhibitor concentration of 4 mg/L ([3]; with 323 and sulbactam): 4 mg/L; MIC of antibiotic at fixed inhibitor concentration of 4 mg/L ([3]; with 501): >32 mg/L; MIC of antibiotic at fixed inhibitor concentration of 4 mg/L [3, 7]: >32 mg/L; Minimal Inhibitory Concentration of antibiotic at fixed inhibitor concentration of 4 mg/L ([4]; + clavulanate 4 mg/L): >32 mg/L; Minimal Inhibitory Concentration of antibiotic at fixed inhibitor concentration of 4 mg/L ([4]; + compound 206 4 mg/L): 8 mg/L; Minimal Inhibitory Concentration of antibiotic at fixed inhibitor concentration of 4 mg/L [4, 8]: 2 mg/L; Minimal Inhibitory Concentration of antibiotic at fixed inhibitor concentration of 4 mg/L ([4]; + compound 501 4 mg/L): 16 mg/L; Minimal Inhibitory Concentration of antibiotic ([4]; antibiotic alone): 32 mg/L; MIC of antibiotic ([5]; antibiotic alone, no inhibitor): 16 mg/L; MIC of antibiotic at fixed inhibitor concentration of 4 mg/L ([5]; with 102 and clavulanate): 2 mg/L; MIC of antibiotic at fixed inhibitor concentration of 4 mg/L ([5]; with 111 and clavulanate): 4 mg/L; MIC of antibiotic at fixed inhibitor concentration of 4 mg/L ([5]; with 202 and clavulanate): 4 mg/L; MIC of antibiotic at fixed inhibitor concentration of 4 mg/L ([5]; with 206 and clavulanate): 4 mg/L; MIC of antibiotic at fixed inhibitor concentration of 4 mg/L ([5]; with 323 and clavulanate): 8 mg/L; MIC of antibiotic at fixed inhibitor concentration of 4 mg/L ([5]; with 323 and sulbactam): 4 mg/L; MIC of antibiotic at fixed inhibitor concentration of 4 mg/L ([5]; with 324 and clavulanate): 8 mg/L; MIC of antibiotic at fixed inhibitor concentration of 4 mg/L ([5]; with 501): 8 mg/L; MIC of antibiotic at fixed inhibitor concentration of 4 mg/L [5, 7]: 8 mg/L; Minimal Inhibitory Concentration of antibiotic at fixed inhibitor concentration of 4 mg/L ([6]; + clavulanate 4 mg/L): >32 mg/L; Minimal Inhibitory Concentration of antibiotic at fixed inhibitor concentration of 4 mg/L ([6]; + compound 206 4 mg/L): >32 mg/L; Minimal Inhibitory Concentration of antibiotic at fixed inhibitor concentration of 4 mg/L [6, 8]: 16 mg/L; Minimal Inhibitory Concentration of antibiotic at fixed inhibitor concentration of 4 mg/L ([6]; + compound 501 4 mg/L): >32 mg/L; Minimal Inhibitory Concentration of antibiotic ([6]; antibiotic alone): >32 mg/L; MIC of antibiotic (Acinetobacter sp. J2; Acinetobacter baumannii J2): >32 mg/L; MIC of antibiotic at fixed inhibitor concentration of 4 mg/L (Acinetobacter sp. J2; Acinetobacter baumannii J2, with 111 and clavulanate): 4 mg/L; MIC of antibiotic at fixed inhibitor concentration of 4 mg/L (Acinetobacter sp. J2; Acinetobacter baumannii J2, with 202 and clavulanate): 4 mg/L; MIC of antibiotic at fixed inhibitor concentration of 4 mg/L (Acinetobacter sp. J2; Acinetobacter baumannii J2, with 206 and clavulanate): 4 mg/L; MIC of antibiotic at fixed inhibitor concentration of 4 mg/L (Acinetobacter sp. J2; Acinetobacter baumannii J2, with 323 and clavulanate): 16 mg/L; MIC of antibiotic at fixed inhibitor concentration of 4 mg/L (Acinetobacter sp. J2; Acinetobacter baumannii J2, with 323 and sulbactam): 1 mg/L; MIC of antibiotic at fixed inhibitor concentration of 4 mg/L (Acinetobacter sp. J2; Acinetobacter baumannii J2, with 324 and clavulanate): 32 mg/L; MIC of antibiotic at fixed inhibitor concentration of 4 mg/L (Acinetobacter sp. J2; Acinetobacter baumannii J2, with 501): <0.06 mg/L; MIC of antibiotic at fixed inhibitor concentration of 4 mg/L (Acinetobacter sp. J2; Acinetobacter baumannii J2, with clavulanate (clavulanic acid)): >32 mg/L; MIC of antibiotic (Acinetobacter sp. J2; Acinetobacter sp. J2): >32 mg/L
